Patent US11535643B2, “Macrolides with modified desosamine sugars and uses thereof” (President and Fellows of Harvard College, priority 2015, dated 2022)
Values after ≈ are worked out from the molar mass of the structure shown. Where two headings read alike, the source gives them in different places.

What was measured:
[1] = from C=CCOC(=O)NC[C@@H]1C[C@H](N(C)C)[C@@H](OC(=O)OC)[C@H](O[C@H]([C@@H](C)C2=C(C)C(=O)OC(C)(C)O2)[C@@](C)(C[C@@H](C)CN[C@H](C)[C@H]2N(CCCCN=[N+]=[N-])C(=O)O[C@]2(C)[C@H](O)CC)OC)O1; ester bond; chlorobenzene; 1.0 mM; 150.0 °C; 16.0 h
[2] = system: S. aureus; test: Broth dilution MIC determination (CLSI) against S. aureus strains; assay type: cell-based; conditions: Staphylococcus aureus
In short: (§1)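 Following CLSI procedures, broth dilution is used to find the MIC for each strain. Controls: azithromycin and solithromycin.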

[3] = system: S. pneumoniae; test: Broth dilution MIC determination (CLSI) against S. pneumoniae strains; assay type: cell-based; conditions: Streptococcus pneumoniae
In short: as §1

[4] = system: S. pyogenes; test: Broth dilution MIC determination (CLSI) against S. pyogenes strains; assay type: cell-based; conditions: Streptococcus pyogenes
In short: as §1

[5] = system: E. faecalis; test: Broth dilution MIC determination (CLSI) against E. faecalis strains; assay type: cell-based; conditions: Enterococcus faecalis
In short: as §1

[6] = system: E. coli; test: Broth dilution MIC determination (CLSI) against E. coli strains; assay type: cell-based; conditions: Escherichia coli
In short: as §1

[7] = system: A. baumannii; test: Broth dilution MIC determination (CLSI) against A. baumannii strains; assay type: cell-based; conditions: Acinetobacter baumannii
In short: as §1

[8] = system: K. pneumoniae; test: Broth dilution MIC determination (CLSI) against K. pneumoniae strains; assay type: cell-based; conditions: Klebsiella pneumoniae
In short: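 Azithromycin and solithromycin served as controls; MICs were obtained by standard CLSI broth dilution on a strain panel including multidrug-resistant and macrolide-resistant isolates.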

[9] = system: P. aeruginosa; test: Broth dilution MIC determination (CLSI) against P. aeruginosa strains; assay type: cell-based; conditions: Pseudomonas aeruginosa
In short: as §1

[10] = system: H. influenzae; test: Broth dilution MIC determination (CLSI) against H. influenzae strains; assay type: cell-based; conditions: Haemophilus influenzae
In short: as §1

[11] = ATCC29213, ATCC29213, read-out: MIC S. aureus ATCC29213
[12] = MRSA / USA100, MRSA: USA100, read-out: MIC S. aureus MRSA: USA100
[13] = MRSA / USA300, MRSA: USA300, read-out: MIC S. aureus MRSA: USA300
[14] = USA600, USA600, GISA, read-out: MIC S. aureus USA600, GISA
[15] = read-out: MIC S. aureus erm A genotype
[16] = ATCC49619, ATCC49619, read-out: MIC S. pneumoniae ATCC49619
[17] = erm B + mef A genotype, read-out: MIC S. pneumoniae erm B + mef A genotype
[18] = erm B + tet(M, O) genotype, read-out: MIC S. pneumoniae erm B + tet(M, O) genotype
[19] = read-out: MIC S. pneumoniae mef A genotype, mef A genotype
[20] = read-out: MIC S. pneumoniae mef A genotype, mef A genotype, first of two such columns (c3)
[21] = ATCC19615, ATCC19615, read-out: MIC S. pyogenes ATCC19615
[22] = macrolide-resistant, read-out: MIC S. pyogenes macrolide-resistant
[23] = ATCC29212, ATCC29212, read-out: MIC E. faecalis ATCC29212
[24] = Vancomycin-resistant, read-out: MIC E. faecalis Vancomycin-resistant
[25] = ATCC25922, ATCC25922, read-out: MIC E. coli ATCC25922
[26] = read-out: MIC E. coli CTX-M-14, CTX-M-14
[27] = read-out: MIC E. coli NDM-1, NDM-1
[28] = read-out: MIC E. coli TEM-1, TEM-1
[29] = ATCC19606, ATCC19606, read-out: MIC A. baumannii ATCC19606
[30] = IMP-4, read-out: MIC A. baumannii IMP-4
[31] = chromosomal class C, read-out: MIC A. baumannii chromosomal class C
[32] = imipenem-resistant, read-out: MIC A. baumannii imipenem-resistant
[33] = ATCC10031, ATCC10031, read-out: MIC K. pneumoniae ATCC10031
[34] = KPC-2, read-out: MIC K. pneumoniae KPC-2
[35] = SHV-12, read-out: MIC K. pneumoniae SHV-12
[36] = TEM-10, read-out: MIC K. pneumoniae TEM-10
[37] = ATCC27853, read-out: MIC P. aeruginosa ATCC27853
[38] = read-out: MIC P. aeruginosa HPA101-1477
[39] = ATCC49247, ATCC49247, read-out: MIC H. influenzae ATCC49247
[40] = erythro > 4, azithro 1, read-out: MIC H. influenzae erythro > 4, azithro 1

SMILES | MIC [2, 11] [µg/mL] | MIC [2, 12] [µg/mL] | MIC [2, 13] [µg/mL] | MIC [2, 14] [µg/mL] | MIC [2, 15] [µg/mL] | MIC [3, 16] [µg/mL] | MIC [3, 17] [µg/mL] | MIC [3, 18] [µg/mL] | MIC [3, 20] [µg/mL] | MIC [4, 21] [µg/mL] | MIC [4, 22] [µg/mL] | MIC [5, 23] [µg/mL] | MIC [5, 24] [µg/mL] | MIC [6, 25] [µg/mL] | MIC [6, 27] [µg/mL] | MIC [7, 29] [µg/mL] | MIC [7, 32] [µg/mL] | MIC [8, 33] [µg/mL] | MIC [8, 34] [µg/mL] | MIC [9, 37] [µg/mL] | further results
C=CCOC(=O)NC[C@@H]1C[C@H](N(C)C)[C@@H](OC(=O)OC)[C@H](O[C@@H]2[C@@H](C)C(=O)[C@@H](C)C(=O)O[C@H](CC)[C@@]3(C)OC(=O)N(CCCCN=[N+]=[N-])[C@@H]3[C@@H](C)NC[C@H](C)C[C@@]2(C)OC)O1 |  |  |  |  |  |  |  |  |  |  |  |  |  |  |  |  |  |  |  |  | ring closure, yield of all isomers [1]: 70%
CC[C@H]1OC(=O)[C@H](C)C(=O)[C@H](C)[C@@H](O[C@@H]2OC(CN)CC(N(C)C)C2O)[C@](C)(OC)C[C@@H](C)CN[C@H](C)[C@H]2N(CCCCn3cc(-c4cccc(N)c4)nn3)C(=O)O[C@]12C (some centres unmarked) [FSM-21700] | 8 (≈ 9.49 µM) | > 32 | > 32 | > 32 | 32 (≈ 38 µM) | ≤ 0.0312 | 16 | 0.0625 | 0.5 (≈ 0.593 µM) | 0.0625 (≈ 0.0741 µM) | 2 (≈ 2.37 µM) | 8 (≈ 9.49 µM) | > 32 | 32 (≈ 38 µM) | 16 (≈ 19 µM) | > 32 | > 32 | 4 (≈ 4.74 µM) | > 32 | > 32 | MIC [3, 19]: 2 µg/mL (≈ 2.37 µM); MIC [6, 26]: > 32 µg/mL; MIC [6, 28]: 8 µg/mL (≈ 9.49 µM); MIC [7, 30]: > 32 µg/mL; MIC [7, 31]: > 32 µg/mL; MIC [8, 35]: > 32 µg/mL; MIC [8, 36]: 32 µg/mL (≈ 38 µM); MIC [9, 38]: > 32 µg/mL; MIC [10, 39]: 32 µg/mL (≈ 38 µM); MIC [10, 40]: 16 µg/mL (≈ 19 µM)
CC[C@H]1OC(=O)[C@H](C)C(=O)[C@H](C)[C@@H](O[C@@H]2OC(CNC(=O)c3ccccn3)CC(N(C)C)C2O)[C@](C)(OC)C[C@@H](C)CN[C@H](C)[C@H]2N(CCCCn3cc(-c4cccc(N)c4)nn3)C(=O)O[C@]12C (some centres unmarked) [FSM-21887] | 8 (≈ 8.44 µM) | > 32 | > 32 | > 32 | > 32 | ≤ 0.0312 | 1 | ≤ 0.0312 | 0.0625 (≈ 0.0659 µM) | ≤ 0.0312 | 1 (≈ 1.05 µM) | 0.5 (≈ 0.527 µM) | > 32 | 16 (≈ 16.9 µM) | 32 (≈ 33.7 µM) | 32 (≈ 33.7 µM) | 32 (≈ 33.7 µM) | 8 (≈ 8.44 µM) | > 32 | > 32 | MIC [3, 19]: 0.5 µg/mL (≈ 0.527 µM); MIC [6, 26]: > 32 µg/mL; MIC [6, 28]: 16 µg/mL (≈ 16.9 µM); MIC [7, 30]: > 32 µg/mL; MIC [7, 31]: 32 µg/mL (≈ 33.7 µM); MIC [8, 35]: > 32 µg/mL; MIC [8, 36]: 16 µg/mL (≈ 16.9 µM); MIC [9, 38]: > 32 µg/mL; MIC [10, 39]: 2 µg/mL (≈ 2.11 µM); MIC [10, 40]: 2 µg/mL (≈ 2.11 µM)
CC[C@H]1OC(=O)[C@H](C)C(=O)[C@H](C)[C@@H](O[C@@H]2OC(CNC(=O)c3cc[nH]n3)CC(N(C)C)C2O)[C@](C)(OC)C[C@@H](C)CN[C@H](C)[C@H]2N(CCCCn3cc(-c4cccc(N)c4)nn3)C(=O)O[C@]12C (some centres unmarked) [FSM-21888] | 32 (≈ 34.1 µM) | > 32 | > 32 | > 32 | > 32 | < 0.0313 | 2 | < 0.0313 | 0.25 (≈ 0.267 µM) | < 0.0313 | 1 (≈ 1.07 µM) | 4 (≈ 4.27 µM) | > 32 | 32 (≈ 34.1 µM) | > 32 | > 32 | > 32 | 8 (≈ 8.54 µM) | > 32 | > 32 | MIC [10, 39]: 8 µg/mL (≈ 8.54 µM); MIC [10, 40]: 8 µg/mL (≈ 8.54 µM)
